This passage reports speed of sound results from the NIST ThermoML archive (doi:10.1016/j.jct.2010.10.021).

A short description of this data set: xn = mol fraction of the nth substance listed. The conditions noted are these: 100 kPa, Liquid, Frequency=5 MHz, Single path-length method, x1 = 0.7.

Molecules are shown by their SMILES. Several values for one entry are separate records, joined by “and”; a condition that tells them apart may be missing. Equal entries are not always repeated. Numbers after ± are expanded uncertainties.

Turning to `[F-].[Li+]` [lithium fluoride] + [Br-].[K+], the speed of sound (1243 K) stood at 1408 ± 28 m/s, the speed of sound (1254 K) came out at 1394 ± 28 m/s and the speed of sound (1260 K) is listed as 1385 ± 28 m/s.

`[F-].[Li+]` [lithium fluoride] + [Cl-].[Cs+]: the speed of sound was 1236 ± 25 m/s and 1235 ± 25 m/s (1261 K); 1226 ± 25 m/s (1271 K); 1220 ± 24 m/s (1278 K).
